Assays:
human 5-HT6 receptor = biological target: T1, human 5-HT6 receptor (Homo sapiens, UniProt P50406); experiment: Serotonin 5-HT6 receptor binding assay ([3H]-clozapine); conditions: 100 nM test drug; [3H]-clozapine 2 nM; human 5-HT6 receptor-expressing CHO cell membrane; read-out: BINDING INHIBITION RATE (%) 5HT6 100 nM
T1 construct: expressed in transfected cells; host or cells: CHO cells (membrane preparation)
Method: (3) Serotonin 5-HT6 Receptor Binding Assay
After a reaction in a total volume of 200 μL of 50 mM Tris-HCl (pH=7.6), 4 mM CaCl2, and 0.5 mM EDTA buffer solution containing 50 μL of [^3H]-clozapine (final concentration 2 nM), 1 μL of test drug in DMSO, and 149 μL of human 5-HT6 receptor-expressing CHO cell membrane sample, human 5-HT6 receptor binding activity of [^3H]-clozapine was measured. The reaction solution let stand for 40 minutes at room temperature, and then it was quickly added on a glass fiber filter plate (Multiscreen FB, Millipore inc.) coated with 0.3% polyethyleneimine (PEI) and filtered under reduced pressure. The glass fiber filter was washed with 200 μL of ice-cooled 50 mM Tris-HCl (pH=7.6) twice, repeatedly filtered under reduced pressure, and then transferred to a vial containing 4 mL of Ecoscint A (National Diagnostics inc.). The residual radioactivity on the glass fiber filter was measured by a liquid scintillation counter. Nonspecific binding was measured in the presence of 10 μM of SB-258585, and [^3H]-clozapine binding inhibition rate in the presence of 100 nM of test drug was determined.

human 5-HT2A receptor = biological target: T2, human 5-HT2A receptor (Homo sapiens, UniProt P28223); experiment: Serotonin 5-HT2A receptor binding assay ([3H]-ketanserin); conditions: [3H]-ketanserin 1 nM, human 5-HT2A receptor-expressing CHO cell membrane; for inhibition at 0.001 µM: 1 nM test drug, read-out: BINDING INHIBITION RATE (%) 5HT2A 1 nM; for inhibition at 0.01 µM: 10 nM test drug, read-out: BINDING INHIBITION RATE (%) 5HT2A 10 nM
T2 construct: expressed in transfected cells; host or cells: CHO cells (membrane preparation)
T2 sequence (P28223 whole entry): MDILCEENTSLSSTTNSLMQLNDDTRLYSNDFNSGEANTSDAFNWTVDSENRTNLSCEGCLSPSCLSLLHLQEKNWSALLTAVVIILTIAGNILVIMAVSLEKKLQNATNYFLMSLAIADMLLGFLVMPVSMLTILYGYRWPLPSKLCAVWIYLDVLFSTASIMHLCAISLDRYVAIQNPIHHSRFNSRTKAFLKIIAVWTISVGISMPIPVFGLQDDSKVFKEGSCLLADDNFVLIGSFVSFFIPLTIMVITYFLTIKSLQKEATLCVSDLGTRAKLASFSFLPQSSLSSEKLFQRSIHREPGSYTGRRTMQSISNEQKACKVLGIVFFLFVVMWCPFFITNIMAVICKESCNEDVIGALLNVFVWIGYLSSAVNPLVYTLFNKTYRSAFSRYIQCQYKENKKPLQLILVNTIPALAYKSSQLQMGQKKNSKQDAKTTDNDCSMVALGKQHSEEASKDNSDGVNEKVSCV
Method: (2) Serotonin 5-HT2A Receptor Binding Assay
5-HT2A receptor binding assay was performed in reference to a method described by Hirose et al. (Japan. J. Pharmacol., 53, 321-329, 1990). After a reaction in a total volume of 200 μL of 50 mM Tris-HCl (pH=7.6) buffer solution containing 50 μL of [^3H]-ketanserin (final concentration 1 nM), 1 μL of test drug in DMSO, and 149 μL of human 5-HT2A receptor-expressing CHO cell membrane sample, human 5-HT2A receptor binding activity of [^3H]-ketanserin was measured. The reaction solution let stand for 15 minutes at 37° C., and then it was quickly added on a glass fiber filter plate (Multiscreen FB, Millipore inc.) coated with 0.05% Brij 35 and filtered under reduced pressure. The glass fiber filter was washed with 200 μL of ice-cooled 50 mM Tris-HCl (pH=7.6) twice, repeatedly filtered under reduced pressure, and then transferred to a vial containing 4 mL of Ecoscint A (National Diagnostics inc.). The residual radioactivity on the glass fiber filter was measured by a liquid scintillation counter. Nonspecific binding was measured in the presence of 10 μM of MDL-100907, and [^3H]-ketanserin binding inhibition rate in the presence of 1 nM or 10 nM of test drug was determined.

human D2L receptor = human D2L receptor (Homo sapiens, UniProt P14416); experiment: Dopamine D2L receptor binding assay ([3H]-spiperone); conditions: 10 nM test drug; [3H]-spiperone 0.5 nM; human D2L receptor-expressing CHO cell membrane; read-out: BINDING INHIBITION RATE (%) D2L 10 nM
human D2L receptor, sequence (P14416 whole entry): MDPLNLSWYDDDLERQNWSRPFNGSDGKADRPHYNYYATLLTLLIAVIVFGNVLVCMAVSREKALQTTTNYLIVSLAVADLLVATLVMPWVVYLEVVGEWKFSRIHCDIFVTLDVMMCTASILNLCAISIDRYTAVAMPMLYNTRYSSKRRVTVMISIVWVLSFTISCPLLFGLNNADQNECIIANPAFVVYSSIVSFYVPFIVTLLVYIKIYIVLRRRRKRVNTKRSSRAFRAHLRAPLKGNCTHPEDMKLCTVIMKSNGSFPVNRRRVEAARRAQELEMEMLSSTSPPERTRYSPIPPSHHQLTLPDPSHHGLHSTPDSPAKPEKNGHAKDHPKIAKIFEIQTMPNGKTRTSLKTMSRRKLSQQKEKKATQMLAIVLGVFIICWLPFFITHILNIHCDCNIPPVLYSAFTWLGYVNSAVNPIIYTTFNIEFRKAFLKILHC
Method: (1) Dopamine D2L Receptor Binding Assay
D2L receptor binding assay was performed in reference to a method described by Hirose et al. (Japan. J. Pharmacol., 53, 321-329, 1990). After a reaction in a total volume of 200 μL of 50 mM Tris-HCl (pH=7.6) buffer solution containing 50 μL of [^3H]-spiperone (final concentration 0.5 nM), 1 μL of test drug in DMSO, and 149 μL of human D2L receptor-expressing CHO cell membrane sample, human D2L receptor binding activity of [^3H]-spiperone was measured. The reaction solution let stand for 60 minutes at room temperature, and then it was quickly added on a glass fiber filter plate (Multiscreen FB, Millipore inc.) coated with 0.3% polyethyleneimine (PEI) and filtered under reduced pressure. The glass fiber filter was washed with 200 μL of ice-cooled 50 mM Tris-HCl (pH=7.6) twice, repeatedly filtered under reduced pressure, and then transferred to a vial containing 4 mL of Ecoscint A (National Diagnostics inc.). The residual radioactivity on the glass fiber filter was measured by a liquid scintillation counter. Nonspecific binding was measured in the presence of 10 μM of spiperone, and [^3H]-spiperone binding inhibition rate in the presence of 10 nM of test drug was determined. The larger binding inhibition rate (%) means that test drug has the higher binding affinity for human D2L receptor.

human α1D receptor = biological target: T3, human α1D receptor (Homo sapiens, UniProt P25100); experiment: Adrenaline α1D receptor binding assay ([3H]-prazosin); conditions: 100 nM test drug; [3H]-prazosin 0.6 nM; human α1D receptor-expressing CHO cell membrane; read-out: BINDING INHIBITION RATE (%) α1D 100 nM
T3 construct: expressed in transfected cells; host or cells: CHO cells (membrane preparation)
T3 sequence (P25100 1-572): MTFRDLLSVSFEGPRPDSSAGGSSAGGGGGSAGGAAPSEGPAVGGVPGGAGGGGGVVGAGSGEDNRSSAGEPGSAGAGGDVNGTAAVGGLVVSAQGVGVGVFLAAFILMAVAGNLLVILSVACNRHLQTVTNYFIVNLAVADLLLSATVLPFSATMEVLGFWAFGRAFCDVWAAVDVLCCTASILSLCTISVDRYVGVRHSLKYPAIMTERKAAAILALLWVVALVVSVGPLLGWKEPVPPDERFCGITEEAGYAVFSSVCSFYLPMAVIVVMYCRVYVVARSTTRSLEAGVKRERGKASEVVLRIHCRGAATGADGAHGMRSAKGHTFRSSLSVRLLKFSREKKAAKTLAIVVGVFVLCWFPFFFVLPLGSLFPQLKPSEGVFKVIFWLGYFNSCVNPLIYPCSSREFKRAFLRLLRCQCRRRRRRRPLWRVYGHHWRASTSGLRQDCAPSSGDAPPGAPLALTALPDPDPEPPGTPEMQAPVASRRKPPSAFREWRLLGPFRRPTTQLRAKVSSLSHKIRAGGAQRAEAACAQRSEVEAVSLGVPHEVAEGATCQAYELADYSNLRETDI
Method: (4) Adrenaline α1D Receptor Binding Assay
After a reaction in a total volume of 200 μL of 50 mM Tris-HCl (pH=7.6) buffer solution containing 50 μL of [^3H]-prazosin (final concentration 0.6 nM), 1 μL of test drug in DMSO, and 149 μL of human α1D receptor-expressing CHO cell membrane sample, human α1D receptor binding activity of [^3H]-prazosin was measured. The reaction solution let stand for 30 minutes at room temperature, and then it was quickly added on a glass fiber filter plate (Multiscreen FB, Millipore inc.) coated with 0.3% polyethyleneimine (PEI) and filtered under reduced pressure. The glass fiber filter was washed with 200 μL of ice-cooled 50 mM Tris-HCl (pH=7.6) twice, repeatedly filtered under reduced pressure, and then transferred to a vial containing 4 mL of Ecoscint A (National Diagnostics inc.). The residual radioactivity on the glass fiber filter was measured by a liquid scintillation counter. Nonspecific binding was measured in the presence of 1 μM of prazosin, and [^3H]-prazosin binding inhibition rate in the presence of 100 nM of test drug was determined.

T1 sequence (P50406 whole entry): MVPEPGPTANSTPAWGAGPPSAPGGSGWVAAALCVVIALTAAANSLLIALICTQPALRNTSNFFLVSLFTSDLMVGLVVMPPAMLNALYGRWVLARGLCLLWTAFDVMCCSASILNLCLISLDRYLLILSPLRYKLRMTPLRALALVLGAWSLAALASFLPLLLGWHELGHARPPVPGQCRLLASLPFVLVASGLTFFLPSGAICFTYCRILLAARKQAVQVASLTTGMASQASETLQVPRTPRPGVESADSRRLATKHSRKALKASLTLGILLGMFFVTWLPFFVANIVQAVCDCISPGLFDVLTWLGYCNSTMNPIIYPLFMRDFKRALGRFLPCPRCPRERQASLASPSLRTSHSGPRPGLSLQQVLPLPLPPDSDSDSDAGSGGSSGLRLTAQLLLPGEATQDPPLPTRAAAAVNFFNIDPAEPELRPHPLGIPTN

| SMILES | inhibition at 0.1 µM (human 5-HT6 receptor) | inhibition at 0.001 µM (human 5-HT2A receptor) | inhibition at 0.01 µM (human 5-HT2A receptor) | inhibition at 0.01 µM (human D2L receptor) | inhibition at 0.1 µM (human α1D receptor) |
| --- | --- | --- | --- | --- | --- |
| COc1ccc2[nH]c(C(=O)N3CCCC[C@H]3CCN3CCC(c4coc5ccccc45)CC3)cc2c1 [Example 26] | 65% | 77% | 98% | 77% | 67% |
| Cc1ccc2[nH]c(C(=O)N3CCOC[C@H]3CCN3CCC(c4coc5ccccc45)CC3)cc2c1 [Example 27] | 85% | – | 93% | 87% | 97% |
| O=C(/C=C/c1ccc2c(c1)OCO2)N1CCC[C@H](CN2CCC(c3coc4ccccc34)CC2)C1 [Example 29] | 85% | – | 100% | 80% | 92% |
| COc1ccc2cc(C(=O)N3CCCC[C@H]3CCN3CCC(c4c[nH]c5ccccc45)CC3)[nH]c2c1 [Example 31] | 88% | – | 96% | 78% | 54% |
| COc1ccc2cc(C(=O)N3CC[C@H]3CCN3CCC(c4c[nH]c5ccccc45)CC3)[nH]c2c1 [Example 32] | 97% | – | 95% | 36% | 68% |
| O=C(/C=C/c1ccc2c(c1)OCO2)N1CCC[C@H](CN2CCC(c3c[nH]c4ccccc34)CC2)C1 [Example 34] | 86% | – | 98% | 75% | 93% |
| COc1ccc2cc(C(=O)N3C[C@H](O)C[C@H]3CCN3CCC(c4c[nH]c5ccccc45)CC3)[nH]c2c1 [Example 35] | 79% | – | 89% | 37% | 81% |
| CCNC(=O)O[C@@H]1C[C@@H](CCN2CCC(c3c[nH]c4ccccc34)CC2)N(C(=O)c2cc3cc(OC)ccc3[nH]2)C1 [Example 36] | 86% | – | 87% | 48% | 75% |
| COc1ccc2[nH]c(C(=O)N3C[C@@](C)(O)C[C@H]3CCN3CCC(c4c[nH]c5ccccc45)CC3)cc2c1 [Example 38] | 86% | – | 97% | 72% | 67% |
| Cc1ccc2cc(C(=O)N3C[C@H](O)CC[C@H]3CCN3CCC(c4c[nH]c5ccccc45)CC3)[nH]c2c1 [Example 39] | 86% | 70% | – | 77% | 69% |
| Cc1ccc2cc(C(=O)N3CCOCCC3CCN3CCC(c4c[nH]c5ccccc45)CC3)[nH]c2c1 (stereo not shown) [Example 43] | 83% | 77% | – | 74% | 82% |
| O=C(c1ccc(F)cc1)C1CCN(C[C@H]2CCCN(C(=O)c3cc4ccc(Cl)cc4[nH]3)C2)CC1 [Example 45] | 97% | 84% | – | 82% | 46% |
| Cc1cc2c3c(c1)cc(C(=O)N1CCC[C@H]1CCN1CCC(C(=O)c4ccc(F)cc4)CC1)n3CCC2=O [Example 46] | 82% | 48% | – | 58% | 54% |
| COc1cc2cc(C(=O)N3CCC[C@H]3CCN3CCC(C(=O)c4ccc(F)cc4)CC3)[nH]c2cn1 [Example 50] | 88% | 66% | – | 71% | 43% |
| O=C(c1ccc(F)cc1)C1CCN(CC[C@@H]2CCCN2C(=O)c2cc(-c3ccccc3)n[nH]2)CC1 [Example 51] | 95% | 76% | – | 81% | 51% |
| O=C(c1ccc(F)cc1)C1CCN(CC[C@@H]2CCCN2C(=O)c2[nH]c3ccccc3c2C(=O)N2CCCCC2)CC1 [Example 54] | 81% | 7% | – | 71% | 63% |
| N#Cc1ccc2[nH]c(C(=O)N3CCC[C@H]3CCN3CCC(C(=O)c4ccc(F)cc4)CC3)cc2c1 [Example 56] | 91% | 70% | – | 84% | 70% |
| O=C(c1nc2cc(Cl)ccc2[nH]1)N1CCCC[C@H]1CCN1CCC(c2c[nH]c3ccccc23)CC1 [Example 58] | 98% | 74% | 91% | 57% | 97% |
| Cc1ccc2nc(C(=O)N3CCC[C@H]3CCN3CCC(C(=O)c4ccc(F)cc4)CC3)[nH]c2c1 [Example 59] | 87% | 58% | – | 91% | 95% |
| COc1ccc2[nH]c(C(=O)N3CCC[C@H]3CCN3CCC(c4cn(-c5ccc(F)cc5)c5ccc(Cl)cc45)CC3)cc2c1 [Example 60] | 97% | – | 78% | 76% | 76% |

Reference: patent US8541585B2, “N-acyl cyclic amine derivative or pharmaceutically acceptable salt thereof” (Dainippon Sumitomo Pharma Co., Ltd., priority 2010, dated 2013)
